Assay results: publication PMC6209510 (European journal of medicinal chemistry, 2017)
pIC50: −log10 of the molar value.

system: P. falciparum D6; assay: not given; format: cell-based, Plasmodium falciparum; conditions: Plasmodium falciparum, D6, 48 h, read-out: P. falciparum D6 IC50

Molecule | pIC50
CCN(CC)CCCC(C)Nc1ccnc2cc(Cl)ccc12 (stereo not drawn) [CQ, Chloroquine, reference compound] | 7.08

same assay, conditions: Vero cells vs P. falciparum D6

Molecule | SI (Selectivity Index: IC50 Vero Cells/IC50 Parasites), P. falciparum D6
COc1cc(CNCCCCNCc2ccc(OCc3ccccc3)c(OC)c2)ccc1OCc1ccccc1 [Compound 26, N1,N4-bis(4-(benzyloxy)-3-methoxybenzyl) butane-1,4-diamine] | >27.4
COc1cc(CNCCCCCCNCc2ccc(OCc3ccccc3)c(OC)c2)ccc1OCc1ccccc1 [Compound 27, N1,N6-bis(4-(benzyloxy)-3-methoxybenzyl) hexane-1,6-diamine] | >31.7

system: P. falciparum W2; assay: not given; format: cell-based; conditions: Plasmodium falciparum, W2, 48 h, read-out: P. falciparum W2 IC50

Molecule | pIC50
CCN(CC)CCCC(C)Nc1ccnc2cc(Cl)ccc12 (stereo not drawn) [CQ, Chloroquine, reference compound] | 6.37

system: not listed separately; assay: Cytotoxicity assay on Vero cells; format: cell-based, African green monkey; conditions: African green monkey, Vero cells (mammalian kidney fibroblasts)

Molecule | IC50 at 48 h
c1ccc(CNCCCNCc2ccccc2)cc1 [Compound 1, N1,N3-dibenzylpropane-1,3-diamine] | > 4.76 µg/mL
COc1ccc(CNCCCNCc2ccc(OC)cc2)cc1 [Compound 7, N1,N3-bis(4-methoxybenzyl)propane-1,3-diamine] | > 4.76 µg/mL
COc1ccc(CNCCCCNCc2ccc(OC)cc2)cc1 [Compound 8, N1,N4-bis(4-methoxybenzyl)butane-1,4-diamine] | > 4.76 µg/mL
COc1ccc(CNCCCCCCNCc2ccc(OC)cc2)cc1 [Compound 9, N1,N6-bis(4-methoxybenzyl)hexane-1,6-diamine] | 8.32 µM
COc1ccc(CNCCCCCCCCNCc2ccc(OC)cc2)cc1 [Compound 10, N1,N8-bis(4-methoxybenzyl)octane-1,8-diamine] | > 4.76 µg/mL
COc1ccc(CNCCCCCCCCCCNCc2ccc(OC)cc2)cc1 [Compound 11, N1,N10-bis(4-methoxybenzyl)decane-1,10-diamine] | > 4.76 µg/mL
COc1ccc(CNCCCCCCCCCCCCNCc2ccc(OC)cc2)cc1 [Compound 12, N1,N12-bis(4-methoxybenzyl)dodecane-1,12-diamine] | > 4.76 µg/mL
COc1ccc(CNCCCNCc2ccc(OC)c(O)c2)cc1O [Compound 19, 5,5’-((propane-1,3-diylbis(azanediyl))bis(methylene))bis(2-methoxyphenol)] | > 4.76 µg/mL
COc1ccc(CNCCCCNCc2ccc(OC)c(O)c2)cc1O [Compound 20, 5,5’-((butane-1,4-diylbis(azanediyl))bis(methylene))bis(2-methoxyphenol)] | > 4.76 µg/mL
COc1ccc(CNCCCCCCNCc2ccc(OC)c(O)c2)cc1O [Compound 21, 5,5’-((hexane-1,6-diylbis(azanediyl))bis(methylene))bis(2-methoxyphenol)] | > 4.76 µg/mL
COc1ccc(CNCCCCCCCCNCc2ccc(OC)c(O)c2)cc1O [Compound 22, 5,5’-((octane-1,8-diylbis(azanediyl))bis(methylene))bis(2-methoxyphenol)] | > 4.76 µg/mL
COc1ccc(CNCCCCCCCCCCNCc2ccc(OC)c(O)c2)cc1O [Compound 23, 5,5’-((decane-1,10-diylbis(azanediyl))bis(methylene)) bis(2-methoxyphenol)] | > 4.76 µg/mL
COc1ccc(CNCCCCCCCCCCCCNCc2ccc(OC)c(O)c2)cc1O [Compound 24, 5,5’-((dodecane-1,12-diylbis(azanediyl))bis(methylene))bis(2-methoxyphenol)] | > 4.76 µg/mL
COc1cc(CNCCCNCc2ccc(OCc3ccccc3)c(OC)c2)ccc1OCc1ccccc1 [Compound 25, N1,N3-bis(4-(benzyloxy)-3-methoxybenzyl) propane-1,3-diamine] | 6.65 µM
COc1cc(CNCCCCNCc2ccc(OCc3ccccc3)c(OC)c2)ccc1OCc1ccccc1 [Compound 26, N1,N4-bis(4-(benzyloxy)-3-methoxybenzyl) butane-1,4-diamine] | > 4.76 µg/mL
COc1cc(CNCCCCCCNCc2ccc(OCc3ccccc3)c(OC)c2)ccc1OCc1ccccc1 [Compound 27, N1,N6-bis(4-(benzyloxy)-3-methoxybenzyl) hexane-1,6-diamine] | > 4.76 µg/mL
COc1cc(CNCCCCCCCCCCNCc2ccc(OCc3ccccc3)c(OC)c2)ccc1OCc1ccccc1 [Compound 29, N1,N10-bis(4-(benzyloxy)-3-methoxybenzyl) decane-1,10-diamine] | > 4.76 µg/mL
COc1cc(CNCCCCCCCCCCCCNCc2ccc(OCc3ccccc3)c(OC)c2)ccc1OCc1ccccc1 [Compound 30, N1,N12-bis(4-(benzyloxy)-3-methoxybenzyl) dodecane-1,12-diamine] | > 4.76 µg/mL

system: Vero cells; assay: Cytotoxicity assay on Vero cells; format: cell-based, African green monkey; conditions: 48 h; tested at a maximum concentration of 8 μM; NC = not cytotoxic

Molecule | Cytotoxicity Vero cells IC50
N1,N1,N10,N10-tetrakis(4-methoxybenzyl) decane-1,10 diamine [Compound 40] | NC (not cytotoxic at the maximum concentration tested (4.46 μg/mL))

system: human foreskin fibroblast (HFF); assay: Cytotoxicity on fibroblast; format: cell-based; conditions: no cytotoxicity at 10 μM

Molecule | cytotoxicity on fibroblast [µM]
COc1cc(CNCCCNCc2ccc(OCc3ccccc3)c(OC)c2)ccc1OCc1ccccc1 [Compound 25, N1,N3-bis(4-(benzyloxy)-3-methoxybenzyl) propane-1,3-diamine] | > 10
